This is an account of results in patent publication US20040176316A1, “Compounds for the normalization of the sleep/wake cycle” (priority 2002, published 2004).

Data set [1] relates to human subjects. The data set is described as follows: Effects of citicoline on sleep quality and mood, rated by subjects on a 10 point scale (FIG. 1). The class given is in vivo. An excerpt: FIG. 1 is a graph of the effects of citicoline on sleep quality and mood. […] The quality of sleep is improved, and the sleep/wake cycle is normalized after 2-4 weeks of citicoline treatment. This normalization of the sleep/wake cycle may further promote increased wakefulness or reduce fatigue or tiredness during the day. The administration of citicoline will also likely stabilize the homeostatic processes involved in sleep disorders such as insomnia, sleep apneas (central or obstructive), problem sleepiness, restless leg syndrome, periodic limb movements, and narcolepsy. In addition, citicoline may increase cognitive functioning (Alvarez et al. Methods Find Exp Clin Pharmacol 21:633-44, 1999; Fioravanti et al. Cochrane Database Syst. Rev. 4: CD000269, 2000) and may be used to increase cognitive performance in individuals in a sleep-deprived state, e.g., pilots, physicians, students, or others who may experience long periods without sleep.

Data set [2] relates to cocaine user. The data set is described as follows: Level of activity as a function of time of day in a cocaine user without and with CDP-choline treatment (FIGS. 2A and 2B). In kind it is in vivo. From the text: FIGS. 2A and 2B are graphs of level of activity as a function of time of day without (A) and with (B) citicoline treatment. A, B, and C refer to use of alcohol, caffeine, and cocaine, respectively. The numbers indicate a craving for cocaine, based on a 10 point scale. Gray dots indicate ingestion of citicoline.
CDP-choline and related compounds are also useful in the treatment of substance abuse disorders, such as alcohol, cocaine, opiate, opioid, nicotine, or tobacco usage or dependence (U.S. Pat. Nos. 5,958,896 and 6,103,703 and U.S. Provisional Application No. 60/424,972, filed Nov. 8, 2002). Since substance abuse disorders may cause a disruption in the quality of sleep or the sleep/wake cycle, the methods of the invention may be used to normalize the sleep/wake cycle or treat sleep disorders in patients with a substance abuse disorder. In addition, a substance abuse disorder and an abnormal sleep/wake cycle or sleep disorder may be treated simultaneously with the methods described herein. FIGS. 2A and 2B show data on the level of activity of a cocaine user for five days without treatment (FIG. 2A) and for 5 days after treatment with CDP-choline (FIG. 2B, monitoring began 4 days after treatment). […] In addition, the subject's use of cocaine (denoted by C) was eliminated with treatment, and the use of alcohol (denoted by A) was reduced.

The conditions of data set [3]: cited from earlier work.
The conditions of data set [4]: cited from earlier work. The source holds these as a separate data set.
The conditions of data set [5]: cited from earlier work. The source holds these as a separate data set.
Where [6] appears, read: after 2-4 weeks of citicoline treatment.
The mark [7] stands for this setting: human subjects, measured by the subjects on a 10 point scale, compared to placebo (FIG. 1).

“Also recorded” adds a separate entry of the source. Like-named read-outs stand apart in the source and are kept apart here.

On to `C[N+](C)(C)CCOP(=O)(O)OP(=O)([O-])OC[C@H]1O[C@@H](n2ccc(N)nc2=O)[C@H](O)[C@@H]1O` [CDP-choline, cytidine 5′-diphosphocholine], for which, in data set [1] (setting [6]), the quality of sleep entry was “improved” and the sleep/wake cycle entry is on record as “normalized”. For the same compound, in data set [1] (setting [7]), the mood entry is “increases” and the quality of sleep entry is on record as “increases”. Moreover, in data set [2] (5 days of monitoring that began 4 days after treatment, vs five days without treatment), the sleep/wake cycle result is on record as “normalized to a diurnal pattern”. Moreover, the “cravings for cocaine (10 point scale)” value in data set [2] (after treatment) is “reduced in intensity”. In addition, in data set [2] (after treatment vs without treatment), the “level of activity during the day” value was “more active during the day”. In data set [2] (with treatment), the use of alcohol result is “reduced” and the use of cocaine entry was “eliminated”. Moreover, in data set [3] (administered either orally or intravenously), the “metabolic conversion after administration” value is “rapidly metabolized to cytidine and choline; also recorded: rapidly converted into the two major circulating metabolites, choline and cytidine”. Also, in data set [3] (orally administered), the “CDP-choline and/or its metabolites absorbed” value is given as “more than 99%” and the excreted in feces result was “less than 1%”. In addition, in data set [3] (share of dose), the excretion via lung is recorded as 12.9%; the excretion via urine was 2.4%; the “rest of the dose metabolized and retained in tissues” value is 83.9%. The toxicity symptoms entry in data set [4] (ingestion of large amounts in preclinical studies) was “common cholinergic symptoms (salivation, lacrimation, urination, defecation, and vomiting)”. Further, the overdoses result in data set [4] (reported cases) is reported as “no reported cases of overdoses”. Besides, the tolerability result in data set [5] (mammals) was “well tolerated”.

As to `O=c1ccn([C@@H]2O[C@H](CO)[C@@H](O)[C@H]2O)c(=O)[nH]1` [uridine], the tolerability result in data set [5] (humans) and in data set [5] (mammals) was “well tolerated” each time.

Turning to `CC(=O)OC[C@H]1O[C@@H](n2ccc(=O)[nH]c2=O)[C@H](OC(C)=O)[C@@H]1OC(C)=O` [triacetyl uridine], the tolerability result in data set [5] (in vivo) is on record as “well tolerated”.

With `CN(CC(=O)O)C(=N)N` [Creatine, creatine], the tolerability entry in data set [5] (humans) is “well tolerated at relatively high doses”.
